In patent publication US10059701B2 (Merck Patent GmbH, priority 2015, dated 2018):
Where a name gives a salt, the structure may show the parent alone.

Legend:
IRAK1 = biological target: T1, IRAK1 (Homo sapiens, UniProt P51617); assay: IRAK1 enzymatic assay (ADP-Glo luminescence); format: biochemical; details: purified human recombinant His-TEV-IRAK1 (194-712)
T1 construct: His-TEV-IRAK1 (194-712); His (N); TEV cleavage site (N)
Procedure, shortened: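 Recombinant human His-TEV-IRAK1 (194-712), 0.3 μg/ml, preincubated 15 min at RT with compounds (10 μM to 0.5 nM) in 50 mM Hepes pH 7.0, 10 mM MgCl2, 2 mM DTT, 0.1% BSA. ATP-started reaction run 2 hours at RT; ADP formed from ATP hydrolysis/autophosphorylation read by ADP-Glo luminescence.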

IRAK4 = biological target: T2, IRAK4 (Homo sapiens, UniProt Q9NWZ3); assay: IRAK4 enzymatic assay (ADP-Glo luminescence); format: biochemical; details: purified human recombinant His-TEV-IRAK4 (1-460), ATP 2 μM
T2 construct: His-TEV-IRAK4 (1-460); His (N); TEV cleavage site (N)
T2 sequence (Q9NWZ3 1-460): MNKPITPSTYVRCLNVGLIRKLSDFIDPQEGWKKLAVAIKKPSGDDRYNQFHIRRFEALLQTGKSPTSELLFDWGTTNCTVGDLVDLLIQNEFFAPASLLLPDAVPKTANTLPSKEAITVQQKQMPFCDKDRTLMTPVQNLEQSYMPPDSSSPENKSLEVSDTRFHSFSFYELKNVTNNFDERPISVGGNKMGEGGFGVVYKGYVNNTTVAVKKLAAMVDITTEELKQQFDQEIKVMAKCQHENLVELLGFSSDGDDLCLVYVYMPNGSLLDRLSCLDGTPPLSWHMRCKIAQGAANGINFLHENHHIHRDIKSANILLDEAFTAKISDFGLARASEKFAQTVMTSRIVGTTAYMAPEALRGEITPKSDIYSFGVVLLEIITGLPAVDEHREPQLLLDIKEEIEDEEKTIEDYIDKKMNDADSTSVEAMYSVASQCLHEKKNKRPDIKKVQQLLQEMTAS
Procedure, shortened: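 Recombinant His-TEV-IRAK4 (1-460) at 0.3 μg/ml preincubated 15 min at RT with compounds (10 μM to 0.5 nM) in Hepes pH 7.0 buffer with MgCl2/MnCl2. Reaction started with 2 μM ATP and 300 nM STK1-biotin peptide, run 2 h at RT. ADP formed read by ADP-Glo luminescence.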

T1 sequence (P51617 194-712): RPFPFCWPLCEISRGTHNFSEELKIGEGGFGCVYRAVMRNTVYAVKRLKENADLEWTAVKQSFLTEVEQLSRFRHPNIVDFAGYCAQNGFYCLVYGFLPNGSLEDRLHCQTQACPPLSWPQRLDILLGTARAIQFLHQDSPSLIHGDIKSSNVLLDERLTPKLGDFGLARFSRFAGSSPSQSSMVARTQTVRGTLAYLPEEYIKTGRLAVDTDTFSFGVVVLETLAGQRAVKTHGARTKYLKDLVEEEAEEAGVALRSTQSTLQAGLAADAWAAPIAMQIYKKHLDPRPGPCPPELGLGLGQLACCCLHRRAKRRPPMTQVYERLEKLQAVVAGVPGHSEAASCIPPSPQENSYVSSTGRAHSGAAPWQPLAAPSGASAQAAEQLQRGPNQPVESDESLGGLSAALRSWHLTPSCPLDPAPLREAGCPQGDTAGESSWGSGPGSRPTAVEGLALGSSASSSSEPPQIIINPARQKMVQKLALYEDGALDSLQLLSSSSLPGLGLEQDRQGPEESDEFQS

SMILES	IC50 (IRAK1) [nM]	IC50 (IRAK4) [nM]
O=C(/N=c1\[nH]c2cc(N3CCOCC3=O)ccc2n1[C@H]1CC[C@@H](CO)CC1)c1cccc(C(F)F)c1 [Compound 123, cis-(E)-3-(difluoromethyl)-N-(1-(4-(hydroxymethyl)cyclohexyl)-5-(3-oxomorpholino)-1H-benzo[d]imidazol-2(3H)-ylidene)benzamide]	≤ 100	≤ 100
CC(C)(C)OC(=O)N1CCC(n2/c(=N/C(=O)c3cccc(C(F)(F)F)c3)[nH]c3cc(N4CCOCC4=O)ccc32)CC1 [Compound 126, (E)-tert-butyl 4-(5-(3-oxomorpholino)-2-((3-(trifluoromethyl)benzoyl)imino)-2,3-dihydro-1H-benzo[d]imidazole-1-yl)piperidine-1-carboxylate]	> 1000	≤ 100
O=C(/N=c1\[nH]c2cc(N3CCOCC3=O)ccc2n1C1CCNCC1)c1cccc(C(F)(F)F)c1 [Compound 128, (E)-N-(5-(3-oxomorpholino)-1-(piperidin-4-yl)-1H-benzo[d]imidazole-2(3H)-ylidene)-3-(trifluoromethyl)benzamide hydrochloride]	> 1000	≤ 100
O=C(/N=c1\[nH]c2cc(N3CCOCC3=O)ccc2n1C1CCNCC1)c1cccc(C(F)F)c1 [Compound 129, (E)-3-(difluoromethyl)-N-(5-(3-oxomorpholino)-1-(piperidin-4-yl)-1H-benzo[d]imidazole-2(3H)-ylidene)benzamide hydrochloride]	100 to 1000	≤ 100
CC(=O)N1CCC(n2/c(=N/C(=O)c3cccc(C(F)(F)F)c3)[nH]c3cc(N4CCOCC4=O)ccc32)CC1 [Compound 130, (E)-N-(1-(1-acetylpiperidin-4-yl)-5-(3-oxomorpholino)-1H-benzo[d]imidazole-2(3H)-ylidene)-3-(trifluoromethyl)benzamide]	≤ 100	≤ 100
CS(=O)(=O)N1CCC(n2/c(=N/C(=O)c3cccc(C(F)(F)F)c3)[nH]c3cc(N4CCOCC4=O)ccc32)CC1 [Compound 132, (E)-N-(1-(1-(methylsulfonyl)piperidin-4-yl)-5-(3-oxomorpholino)-1H-benzo[d]imidazole-2(3H)-ylidene)-3-(trifluoromethyl)benzamide]	100 to 1000	≤ 100
CS(=O)(=O)N1CCC(n2/c(=N/C(=O)c3cccc(C(F)F)c3)[nH]c3cc(N4CCOCC4=O)ccc32)CC1 [Compound 133, (E)-3-(difluoromethyl)-N-(1-(1-(methylsulfonyl)piperidin-4-yl)-5-(3-oxomorpholino)-1H-benzo[d]imidazole-2(3H)-ylidene)benzamide]	≤ 100	≤ 100
CCNC(=O)N1CCC(n2/c(=N/C(=O)c3cccc(C(F)(F)F)c3)[nH]c3cc(N4CCOCC4=O)ccc32)CC1 [Compound 134, (E)-N-ethyl-4-(5-(3-oxomorpholino)-2-((3-(trifluoromethyl)benzoyl)imino)-2,3-dihydro-1H-benzo[d]imidazol-1-yl)piperidine-1-carboxamide]	100 to 1000	≤ 100
CCNC(=O)N1CCC(n2/c(=N/C(=O)c3cccc(C(F)F)c3)[nH]c3cc(N4CCOCC4=O)ccc32)CC1 [Compound 135, (E)-4-(2-((3-(difluoromethyl)benzoyl)imino)-5-(3-oxomorpholino)-2,3-dihydro-1H-benzo[d]imidazol-1-yl)-N-ethylpiperidine-1-carboxamide]	≤ 100	≤ 100
O=C(/N=c1\[nH]c2cc(N3CCOCC3=O)ccc2n1C1CCS(=O)(=O)CC1)c1cccc(C(F)(F)F)c1 [Compound 136, (E)-N-(1-(1,1-dioxidotetrahydro-2H-thiopyran-4-yl)-5-(3-oxomorpholino)-1H-benzo[d]imidazol-2(3H)-ylidene)-3-(trifluoromethyl)benzamide]	100 to 1000	≤ 100
N#Cc1cc2c(cc1N1CCOCC1=O)[nH]/c(=N\C(=O)c1cccc(C(F)(F)F)c1)n2CCCO [Compound 138, (E)-N-(6-cyano-1-(3-hydroxypropyl)-5-(3-oxomorpholino)-1H-benzo[d]imidazol-2(3H)-ylidene)-3-(trifluoromethyl)benzamide]	> 1000	≤ 100
O=C(/N=c1\[nH]c2cc(N3CCOCC3=O)c(Cl)cc2n1CCCO)c1cccc(C(F)(F)F)c1 [Compound 141, (E)-N-(6-chloro-1-(3-hydroxypropyl)-5-(3-oxomorpholino)-1H-benzo[d]imidazol-2(3H)-ylidene)-3-(trifluoromethyl)benzamide]	> 1000	≤ 100
O=C(/N=c1\[nH]c2cc(N3CCOCC3=O)c(Cl)cc2n1CCCO)c1cccc(C(F)F)c1 [Compound 142, (E)-N-(6-chloro-1-(3-hydroxypropyl)-5-(3-oxomorpholino)-1H-benzo[d]imidazol-2(3H)-ylidene)-3-(difluoromethyl)benzamide]	100 to 1000	≤ 100
O=C(/N=c1\[nH]c2cc(N3CCCOC3=O)ccc2n1CC(F)CO)c1cccc(C(F)(F)F)c1 (stereo not drawn) [Compound 145, (E)-N-(1-(2-fluoro-3-hydroxypropyl)-5-(2-oxo-1,3-oxazinan-3-yl)-1H-benzo[d]imidazol-2(3H)-ylidene)-3-(trifluoromethyl)benzamide]	≤ 100	≤ 100
N#Cc1cccc(C(=O)/C=C2\Nc3cc(N4CCOCC4=O)ccc3N2CCCO)c1 [Compound 146, (E)-3-(2-(1-(3-hydroxypropyl)-5-(3-oxomorpholino)-1H-benzo[d]imidazol-2(3H)-ylidene)acetyl)benzonitrile]	100 to 1000	100 to 1000
O=C(/C=C1\Nc2cc(N3CCOCC3=O)ccc2N1CCCO)c1cccc(C(F)(F)F)n1 [Compound 147, (E)-4-(1-(3-hydroxypropyl)-2-(2-oxo-2-(6-(trifluoromethyl)pyridin-2-yl)ethylidene)-2,3-dihydro-1H-benzo[d]imidazol-5-yl)morpholin-3-one]	100 to 1000	≤ 100
O=C(/C=C1\Nc2cc(N3CCOCC3=O)ccc2N1CCCO)c1ccc2ccccc2n1 [Compound 149, (E)-4-(1-(3-hydroxypropyl)-2-(2-oxo-2-(quinolin-2-yl)ethylidene)-2,3-dihydro-1H-benzo[d]imidazol-5-yl)morpholin-3-one]	> 1000	> 1000

Now from value to compound:

IC50 (IRAK1) [nM]	IC50 (IRAK4) [nM]	SMILES
100 to 1000	≤ 100	CC(C)(C)OC(=O)N1CCC(n2/c(=N/C(=O)c3cccc(C(F)F)c3)[nH]c3cc(N4CCOCC4=O)ccc32)CC1 [Compound 127, (E)-tert-butyl 4-(2-((3-(difluoromethyl)benzoyl)imino)-5-(3-oxomorpholino)-2,3-dihydro-1H-benzo[d]imidazole-1-yl)piperidine-1-carboxylate]
100 to 1000	≤ 100	CC(=O)N1CCC(n2/c(=N/C(=O)c3cccc(C(F)F)c3)[nH]c3cc(N4CCOCC4=O)ccc32)CC1 [Compound 131, (E)-N-(1-(1-acetylpiperidin-4-yl)-5-(3-oxomorpholino)-1H-benzo[d]imidazole-2(3H)-ylidene)-3-(difluoromethyl)benzamide]
≤ 100	≤ 100	CC(C)Oc1cc2c(cc1N1CCOCC1=O)[nH]/c(=N\C(=O)c1cccc(C(F)F)c1)n2CCCO [Compound 137, (E)-3-(difluoromethyl)-N-(1-(3-hydroxypropyl)-6-isopropoxy-5-(3-oxomorpholino)-1H-benzo[d]imidazol-2(3H)-ylidene)benzamide]
100 to 1000	≤ 100	O=C(/N=c1\[nH]c2cc(N3CCOCC3=O)c(F)cc2n1CCCO)c1cccc(C(F)(F)F)c1 [Compound 139, (E)-N-(6-fluoro-1-(3-hydroxypropyl)-5-(3-oxomorpholino)-1H-benzo[d]imidazol-2(3H)-ylidene)-3-(trifluoromethyl)benzamide]
100 to 1000	≤ 100	O=C(/N=c1\[nH]c2cc(N3CCOCC3=O)c(F)cc2n1CCCO)c1cccc(C(F)F)c1 [Compound 140, (E)-3-(difluoromethyl)-N-(6-fluoro-1-(3-hydroxypropyl)-5-(3-oxomorpholino)-1H-benzo[d]imidazol-2(3H)-ylidene)benzamide]
100 to 1000	≤ 100	COc1cc2c(cc1N1CCOCC1=O)[nH]/c(=N\C(=O)c1cccc(C(F)(F)F)c1)n2[C@H](C)CCO [Compound 143, (R,E)-N-(1-(4-hydroxybutan-2-yl)-6-methoxy-5-(3-oxomorpholino)-1H-benzo[d]imidazol-2(3H)-ylidene)-3-(trifluoromethyl)benzamide]
100 to 1000	≤ 100	O=C(/C=C1\Nc2cc(N3CCOCC3=O)ccc2N1CCCO)c1cccc(Br)n1 [Compound 148, (E)-4-(2-(2-(6-bromopyridin-2-yl)-2-oxoethylidene)-1-(3-hydroxypropyl)-2,3-dihydro-1H-benzo[d]imidazol-5-yl)morpholin-3-one]
